Measured values taken from US8445636B2, “Antimicrobial and anticancer lipopeptides” (Yeda Research & Development Co. Ltd., priority 2003, dated 2013).
In brackets after ≈: the same amount, converted by molar mass. Non-standard residues stand in square brackets, D forms with d. Residues, ends and D or L forms follow the SMILES beside them. *: point of attachment. Palmitoyl = CCCCCCCCCCCCCCCC(=O)*; Myristoyl = CCCCCCCCCCCCCC(=O)*

Experiments:
Format in all cases: cell-based
[1] = tested on: Pseudomonas aeruginosa ATCC 27853; conditions: ATCC 27853, pH 7.4
In short: (§1)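 Values are MICs from microdilution in LB (pH 7.4 unless noted) with bacteria at 1×10^6 CFU/ml before 1:1 mixing, read at 600 nm after 18-20 h, 37° C.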

[2] = tested on: M. laleus; conditions: Table 3, short lipopeptides; pH 7.4
In short: as §1

[3] = tested on: Acinetobacter baumannii ATCC 19606; conditions: ATCC 19606, pH 7.4
In short: as §1

[4] = tested on: Staphylococcus aureus ATCC 6538P; conditions: ATCC 6538, pH 7.4
In short: as §1

[5] = tested on: Aspergillus fumigatus ATCC 26430; experiment: microbe, parasite or virus in culture; conditions: ATCC 26430, pH 7.4
[6] = tested on: E. coli D21; conditions: D21, pH 7.4
[7] = tested on: Candida albicans ATCC 10231; experiment: microbe, parasite or virus in culture; conditions: ATCC 10231, pH 7.4; for MIC: read-out: Minimal Inhibitory Concentration, Candida Albicans (ATCC 10231)
In short: (§2)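 In this assay, each strain, prepared at 1×10^4 CFU/ml before mixing, met serial twofold peptide dilutions in RPMI 1640 buffered with 0.165 M MOPS. Unless noted, pH was 7.4; a pH 5.5 condition was also run. After 24-48 h incubation (35 °C, agitated), wells were scored at 620 nm for total inhibition.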

[8] = tested on: Cryptococcus neoformans ATCC MYA-422; experiment: microbe, parasite or virus in culture; conditions: ATCC MYA-422, pH 7.4
[9] = tested on: methicilin-resistant Staphylococcus aureus (MRSA) ATCC 700698; conditions: ATCC 700698, pH 7.4
In short: as §1

[10] = tested on: Enterococcus faecalis ATCC 29212; conditions: ATCC 29212, pH 7.4
In short: as §1

[11] = tested on: Enterobacter cloacae ATCC 49141; conditions: ATCC 49141, pH 7.4
In short: as §1

[12] = tested on: Escherichia coli ATCC 25922; conditions: ATCC 25922, pH 7.4
In short: as §1

[13] = tested on: vancomycin-resistant Enterococcus faecium (VRE) ATCC 700221; conditions: for Minimal Inhibitory Concentration, E. faecium (VRE): ATCC 700221, pH 7.4
In short: as §1

[14] = tested on: Aspergillus niger ATCC 9642; conditions: ATCC 9642, pH 7.4
Description: The antifungal activity of the lipopeptides was examined in sterile 96-well plates (Nunc F96 microtiter plates) in a final volume of 200 μL as follows: 100 µl of a suspension containing fungi at a concentration of 1×10^4 Colony-Forming Units (CFU)/ml in culture medium (RPMI 1640, 0.165 M MOPS with L-glutamine, without NaHCO3) at pH 7.4 or pH 5.5 (adjustment of the pH was done by diluted solutions of HCl and NaOH) were added to 100 μl of water containing the peptide in serial 2-fold dilutions in water. The fungi were incubated in the presence of the lipopeptides for 24-48 h at 35° C. in a Binder KB115 incubator under agitation. Growth inhibition was determined by measuring the absorbance at 620 nm with a Microplate autoreader E1309 (Bio-Tek Instruments). Antifungal activity is expressed as the minimal inhibitory concentration (MIC), the concentration at which 100% inhibition of fungi growth was observed after the incubation time mentioned above. The fungi used were: Aspergillus niger ATCC 9642, Candida albicans ATCC 10231 and Cryptococcus neoformans ATCC 66031. If not indicated otherwise, the fungi growth was detected at pH 7.4.

[15] = tested on: B. subtilis ATCC 6051; conditions: ATCC 6051, pH 7.4
[16] = tested on: Cryptococcus neoformans ATCC 66031; experiment: microbe, parasite or virus in culture; conditions: ATCC 66031, pH 7.4
In short: as §2

[17] = tested on: Aspergillus flavus ATCC 9643; conditions: ATCC 9643, pH 7.4

Question: Which results are given for `CCCCCCCCCCCCCCCC(=O)N[C@@H](CCCCN)C(=O)N[C@H](CCCCN)C(N)=O` [PA-KK, Palmitoyl-Lys-D-Lys-NH2]?
Answer: Minimal Inhibitory Concentration, P. aeruginosa ATCC 27853 [1]: 100 µM; Minimal Inhibitory Concentration, M. laleus [2]: 3.12 µM; Minimal Inhibitory Concentration, A. baumannii ATCC 19606 [3]: 100 µM; Minimal Inhibitory Concentration, S. aureus ATCC 6538P [4]: 6.25 µM; MIC ([5]; read-out: Minimal Inhibitory Concentration, Aspergillus Fomigatus (ATCC 26430)): 6.25 µM (≈ 3.2 µg/mL); Minimal Inhibitory Concentration, E. coli-D21 [6]: 6.25 µM; MIC [7]: 12.5 µM (≈ 6.4 µg/mL); MIC ([8]; read-out: Minimal Inhibitory Concentration, Cyrptococcus neoformans (ATCC MYA-422)): 2.5 µM (≈ 1.28 µg/mL)

Question: How did the “Minimal Inhibitory Concentration, S. aureus (MRSA)” value [9] turn out when `CCCCCCCCCCCCCCCC(=O)N[C@H](CCCCN)C(=O)NCC(=O)NCC(=O)NCC(=O)N[C@H](CCCCN)C(=O)NCC(=O)NCC(=O)NCC(=O)N[C@H](CCCCN)C(=O)NCC(=O)NCC(=O)N[C@H](CCCCN)C(N)=O` [lipopeptide 2, (CH3—(CH2)14—CO—)-D-Lys-Gly-Gly-Gly-D-Lys-Gly-Gly-Gly-D-Lys-Gly-Gly-D-Lys-NH2] (Palmitoyl-[dK]GGG[dK]GGG[dK]GG[dK]-NH2) was run?
Answer: 12.5 µM

Question: And the “Minimal Inhibitory Concentration, E. faecalis” value [10]?
Answer: 12.5 µM

Question: What about the “Minimal Inhibitory Concentration, E. cloacae” value [11] of the same molecule?
Answer: 25 µM

Question: And the “Minimal Inhibitory Concentration, P. Aeruginosa” value [1]?
Answer: 6.25 µM

Question: What about the “Minimal Inhibitory Concentration, P. aeruginosa ATCC 27853” value [1] of the same molecule?
Answer: 6.25 µM

Question: What about the “Minimal Inhibitory Concentration, A. Baumaannii” value [3] of the same molecule?
Answer: 25 µM

Question: And the “Minimal Inhibitory Concentration, A. baumannii ATCC 19606” value [3]?
Answer: 25 µM

Question: And the “Minimal Inhibitory Concentration, S. aureus” value [4]?
Answer: 12.5 µM

Question: What about the “Minimal Inhibitory Concentration, S. aureus ATCC 6538P” value [4] of the same molecule?
Answer: 12.5 µM

Question: And the “Minimal Inhibitory Concentration, E. coli” value [12]?
Answer: 25 µM

Question: What about the “Minimal Inhibitory Concentration, E. coli (ATCC 25922)” value [12] of the same molecule?
Answer: 25 µM

Question: And the “Minimal Inhibitory Concentration, E. faecium (VRE)” value [13]?
Answer: 3.125 µM

Question: And the “activity against VRE” value ([13]; in words, summary of Table 4)?
Answer: highly active

Question: What about the “Minimal Inhibitory Concentration, A. fumigatus ATCC 26430” value [5] of the same molecule?
Answer: 12.5 µM

Question: And the “Minimal Inhibitory Concentration, Aspergillus fumigatus (ATCC 26430)” value [5]?
Answer: 12.5 µM

Question: And the “Minimal Inhibitory Concentration, Aspergillus niger (ATCC 9642)” value [14]?
Answer: 6.25 µM

Question: And the “Minimal Inhibitory Concentration, B. subtilis (ATCC 6051)” value [15]?
Answer: 3.125 µM

Question: And the “Minimal Inhibitory Concentration, C. neoformans ATCC 66031” value [16]?
Answer: 6.25 µM

Question: What about the “Minimal Inhibitory Concentration, C. albicans ATCC 10231” value [7] of the same molecule?
Answer: 3.125 µM

Question: And the MIC [7]?
Answer: 3.125 µM (≈ 3.83 µg/mL)

Question: And the “Minimal Inhibitory Concentration, Cryptococcus neoformans (ATCC MYA-422)” value [8]?
Answer: 6.25 µM

Question: And the “Minimal Inhibitory Concentration, Aspergillus flavus (ATCC 9643)” value [17]?
Answer: 100 µM

Question: With `CCCCCCCCCCCCCC(=O)N[C@@H](CCCCN)C(=O)NCC(=O)NCC(=O)NCC(=O)N[C@@H](CCCCN)C(=O)NCC(=O)NCC(=O)NCC(=O)N[C@@H](CCCCN)C(=O)NCC(=O)NCC(=O)N[C@@H](CCCCN)C(N)=O` [lipopeptide 3, (CH3—(CH2)12—CO—)-Lys-Gly-Gly-Gly-Lys-Gly-Gly-Gly-Lys-Gly-Gly-Lys-NH2] (Myristoyl-KGGGKGGGKGGK-NH2) as the molecule, how does the “Minimal Inhibitory Concentration, S. aureus (MRSA)” value [9] read?
Answer: 6.25 µM

Question: What about the “Minimal Inhibitory Concentration, E. faecalis” value [10] of the same molecule?
Answer: 6.25 µM

Question: And the “Minimal Inhibitory Concentration, E. cloacae” value [11]?
Answer: 6.25 µM

Question: What about the “Minimal Inhibitory Concentration, P. Aeruginosa” value [1] of the same molecule?
Answer: 6.25 µM

Question: And the “Minimal Inhibitory Concentration, A. Baumaannii” value [3]?
Answer: 12.5 µM

Question: What about the “Minimal Inhibitory Concentration, S. aureus” value [4] of the same molecule?
Answer: 6.25 µM

Question: And the “Minimal Inhibitory Concentration, E. coli” value [12]?
Answer: 6.25 µM

Question: What about the “Minimal Inhibitory Concentration, E. faecium (VRE)” value [13] of the same molecule?
Answer: 12.5 µM

Question: What about the “Minimal Inhibitory Concentration, A. fumigatus ATCC 26430” value [5] of the same molecule?
Answer: 6.25 µM

Question: And the “Minimal Inhibitory Concentration, C. neoformans ATCC 66031” value [16]?
Answer: 3.125 µM

Question: What about the “Minimal Inhibitory Concentration, C. albicans ATCC 10231” value [7] of the same molecule?
Answer: 3.125 µM
